In data set [1] the target is NaV1.1 (Homo sapiens (Human), UniProt P35498). The data set is described as follows: Selectivity test for Nav ion channel subtypes: NaV1.1 (HEK293, patch clamp). The conditions noted are these: 1 uM; HEK293 cells. Format: cell-based. The method, then: (§1) Test Case 3: Compound Selectivity Test for Nav Ion Channel Subtypes
(§2) The aim of this test is to investigate effect of compounds on human Na ion channel cells expressed in steady-state (NaV1.1, NaV1.3, NaV1.4, NaV1.5, NaV1.6, NaV1.7). After Na ion currents is stabilized, the effect can be obtained by comparing the magnitude of Na channel currents before and after the application of the compounds.
(§3) The test compound is stored at a concentration of 9 mM in dimethyl sulfoxide (DMSO), and on the day of testing, dissolve in extracellular solution, then prepare to a screening concentration of 1 uM.
(§4) All experiments are performed at room temperature. Each cell itself is taken as the corresponding control.
(§5) At least one cell is tested per concentration.
(§6) HEK293 cells steadily expressing NaV1.1-, NaV1.3-, NaV1.4-, NaV1.5-, NaV1.6-ion channels; CHO cells expressing steadily NaV1.7 ion channel.
(§7) The intracellular fluid (mM) is: Aspartic acid, 140; MgCl2, 2; EGTA 11; HEPES, 10; pH 7.2 (CsOH titration). […] Electrodes are drawn with PC-10 (Narishige, Japan). Recording is performed with whole-cell diaphragm clamp.
(§8) Cells are clamped at −80 mV and then depolarized to −10 mV with a sustained 10 ms square wave to obtain Na ion channel currents (see the FIGURE). This process is repeated every 5 seconds. […] The strength of the block is calculated after the response is stabilized.
(In general: In patch-clamp work, channel activity is measured electrically.)

Data set [2] is described as follows: In vivo pharmacokinetic testing of compounds in rats. The conditions noted are these: rat, male SD rats, single oral dose 100 mg/kg, plasma, VX-150 dosed as prodrug, active form analysed; for AUC: read-out: AUC; for Cmax: read-out: Cmax. The method, then: Test Case 4: In Vivo Pharmacokinetic Testing of Compounds in Rats
All SD rats in the test are male and are purchased from Shanghai Sippe-Bk Lab Animal Co., Ltd. Each compound is administered orally (100 mg/kg, 3 rats per group) at single dose to SD rats for pharmacokinetic study. The solutions are prepared on the same day of administration, e.g., the tested compound is suspended in 5% DMSO+95% saline, get vortexed for 2 min, and sonicated for 5 min to prepare a drug delivery system. The animals are fasted for 10-14 hours before oral administration, and resumed food 4 hours after administration. After oral administration by gavage in SD rats, pharmacokinetic samples are collected from jugular vein at the following time points: 0, 15 min, 30 min, 1 h, 2 h, 4 h, 6 h, 8 h and 24 h. Three whole blood samples are collected at each time point in a volume of about 0.2 mL and anticoagulated using sodium heparin. Blood samples are placed on ice immediately after collection and plasma is separated by centrifugation within 1 h (centrifugation conditions: 6800 rpm, 6 min, 2-8° C.). The collected plasma is stored in a −80° C. refrigerator prior to analysis.
In pharmacokinetic tests in rat, the control compound VX-150 is a prodrug (WO2015089361, compound 9), after administration, analysis is performed to test its active form (WO2014120808, compound 10). The aforementioned in vitro pharmacological tests are performed using the active ingredient (WO2014120808, compound 10).

Data set [3] has as its target NaV1.5 (Homo sapiens (Human), UniProt Q14524). The data set is described as follows: Selectivity test for Nav ion channel subtypes: NaV1.5 (HEK293, patch clamp). To be noted: 1 uM; HEK293 cells. It is filed as cell-based. The method, then: as §1, §2, §3, §4, §5, §6, §7, §8
Data set [4] has as its target NaV1.7 (Homo sapiens (Human), UniProt Q15858). The data set is described as follows: Selectivity test for Nav ion channel subtypes: NaV1.7 (CHO cells, patch clamp). Format: cell-based. To be noted: 1 uM. The method, then: as §1, §2, §3, §4, §5, §6, §7, §8
For data set [5], the target named is human NaV1.8 ion channel (Homo sapiens (Human), UniProt Q9Y5Y9). The data set is described as follows: Compound inhibition activity on human NaV1.8 ion channel in HEK293 cells (whole-cell patch clamp). Format: cell-based. The conditions noted are these: 100 nm concentration; HEK293 cells, resting protocol; read-out: Inhibition ratio of compounds against Nav1.8 (Activity of inhibition).

Data set [6] has as its target NaV1.6 (Homo sapiens (Human), UniProt Q9UQD0). The data set is described as follows: Selectivity test for Nav ion channel subtypes: NaV1.6 (HEK293, patch clamp). Format: cell-based. To be noted: 1 uM; HEK293 cells. The method, then:
as §1, §2, §3, §4, §5, §6, §7, §8

In data set [7] the target is NaV1.4 (Homo sapiens (Human), UniProt P35499). As to the kind of experiment: Selectivity test for Nav ion channel subtypes: NaV1.4 (HEK293, patch clamp). The conditions noted are these: 1 uM; HEK293 cells. Format: cell-based. The method, then:
as §1, §2, §3, §4, §5, §6, §7, §8

Data set [8] addresses hERG ion channels (Homo sapiens (Human), UniProt Q12809). The data set is described as follows: Inhibition activity test on hERG ion channels in HEK293 cells (cardiac safety, patch clamp). The conditions noted are these: human, pH 7.4. The method, then:
This experiment is used as a cardiac safety test of compound.
The reagents are purchased from Sigma (St. Louis, MO) except NaOH and KOH for acid-base titration. Final concentrations of tested solutions are prepared on the testing day and dissolved in extracellular fluid. […] All the test solutions and the control solutions contain 0.3% DMSO. Intracellular fluid (mM) contains: K Aspartate, 130; MgCl2, 5; EGTA 5; HEPES, 10; Tris-ATP 4; pH 7.2 (KOH titration).
Cells: all experiments is performed at room temperature. Each cell itself is taken as the corresponding control.
Compounds are all perfused using a perfusion system that utilizes the gravity. At least two cells are tested per concentration. After current stabilization (or 5 minutes), the change in current magnitude before and after the use of the compound is compared to calculate the blocking effect of the compound.
The method of operation is the same as that of the test compound.
Electrophysiology: Transfer the Cells to the perfusion tank and perfuse with extracellular fluid. The intracellular fluid (mM) contains: K Aspartate, 130; MgCl2, 5; EGTA 5; HEPES, 10; Tris-ATP 4; pH 7.2 (KOH titration). The intracellular fluid is stored in small quantities in portions in a −80° C. refrigerator, and melt on the day of the experiment. Electrodes are drawn with PC-10 (Narishige, Japan). Recording is performed with whole-cell diaphragm clamp. Noise is filtered with one-fifth of the sampling frequency.
This process is repeated every 20 seconds. The hERG tail current is the pure hERG current. The maximum tail current triggered by the second square wave is detected, and when the current is stabilized, the test compound is perfused. The strength of the block is calculated when the response is stabilized.
On the technique in general: Block of hERG is tested as a sign of cardiac risk.

Data set [9] addresses NaV1.3 (Homo sapiens (Human), UniProt Q9NY46). The data set is described as follows: Selectivity test for Nav ion channel subtypes: NaV1.3 (HEK293, patch clamp). It is filed as cell-based. The conditions noted are these: 1 uM; HEK293 cells. The method, then: as §1, §2, §3, §4, §5, §6, §7, §8

Sequence of human NaV1.8 ion channel (Q9Y5Y9 whole entry): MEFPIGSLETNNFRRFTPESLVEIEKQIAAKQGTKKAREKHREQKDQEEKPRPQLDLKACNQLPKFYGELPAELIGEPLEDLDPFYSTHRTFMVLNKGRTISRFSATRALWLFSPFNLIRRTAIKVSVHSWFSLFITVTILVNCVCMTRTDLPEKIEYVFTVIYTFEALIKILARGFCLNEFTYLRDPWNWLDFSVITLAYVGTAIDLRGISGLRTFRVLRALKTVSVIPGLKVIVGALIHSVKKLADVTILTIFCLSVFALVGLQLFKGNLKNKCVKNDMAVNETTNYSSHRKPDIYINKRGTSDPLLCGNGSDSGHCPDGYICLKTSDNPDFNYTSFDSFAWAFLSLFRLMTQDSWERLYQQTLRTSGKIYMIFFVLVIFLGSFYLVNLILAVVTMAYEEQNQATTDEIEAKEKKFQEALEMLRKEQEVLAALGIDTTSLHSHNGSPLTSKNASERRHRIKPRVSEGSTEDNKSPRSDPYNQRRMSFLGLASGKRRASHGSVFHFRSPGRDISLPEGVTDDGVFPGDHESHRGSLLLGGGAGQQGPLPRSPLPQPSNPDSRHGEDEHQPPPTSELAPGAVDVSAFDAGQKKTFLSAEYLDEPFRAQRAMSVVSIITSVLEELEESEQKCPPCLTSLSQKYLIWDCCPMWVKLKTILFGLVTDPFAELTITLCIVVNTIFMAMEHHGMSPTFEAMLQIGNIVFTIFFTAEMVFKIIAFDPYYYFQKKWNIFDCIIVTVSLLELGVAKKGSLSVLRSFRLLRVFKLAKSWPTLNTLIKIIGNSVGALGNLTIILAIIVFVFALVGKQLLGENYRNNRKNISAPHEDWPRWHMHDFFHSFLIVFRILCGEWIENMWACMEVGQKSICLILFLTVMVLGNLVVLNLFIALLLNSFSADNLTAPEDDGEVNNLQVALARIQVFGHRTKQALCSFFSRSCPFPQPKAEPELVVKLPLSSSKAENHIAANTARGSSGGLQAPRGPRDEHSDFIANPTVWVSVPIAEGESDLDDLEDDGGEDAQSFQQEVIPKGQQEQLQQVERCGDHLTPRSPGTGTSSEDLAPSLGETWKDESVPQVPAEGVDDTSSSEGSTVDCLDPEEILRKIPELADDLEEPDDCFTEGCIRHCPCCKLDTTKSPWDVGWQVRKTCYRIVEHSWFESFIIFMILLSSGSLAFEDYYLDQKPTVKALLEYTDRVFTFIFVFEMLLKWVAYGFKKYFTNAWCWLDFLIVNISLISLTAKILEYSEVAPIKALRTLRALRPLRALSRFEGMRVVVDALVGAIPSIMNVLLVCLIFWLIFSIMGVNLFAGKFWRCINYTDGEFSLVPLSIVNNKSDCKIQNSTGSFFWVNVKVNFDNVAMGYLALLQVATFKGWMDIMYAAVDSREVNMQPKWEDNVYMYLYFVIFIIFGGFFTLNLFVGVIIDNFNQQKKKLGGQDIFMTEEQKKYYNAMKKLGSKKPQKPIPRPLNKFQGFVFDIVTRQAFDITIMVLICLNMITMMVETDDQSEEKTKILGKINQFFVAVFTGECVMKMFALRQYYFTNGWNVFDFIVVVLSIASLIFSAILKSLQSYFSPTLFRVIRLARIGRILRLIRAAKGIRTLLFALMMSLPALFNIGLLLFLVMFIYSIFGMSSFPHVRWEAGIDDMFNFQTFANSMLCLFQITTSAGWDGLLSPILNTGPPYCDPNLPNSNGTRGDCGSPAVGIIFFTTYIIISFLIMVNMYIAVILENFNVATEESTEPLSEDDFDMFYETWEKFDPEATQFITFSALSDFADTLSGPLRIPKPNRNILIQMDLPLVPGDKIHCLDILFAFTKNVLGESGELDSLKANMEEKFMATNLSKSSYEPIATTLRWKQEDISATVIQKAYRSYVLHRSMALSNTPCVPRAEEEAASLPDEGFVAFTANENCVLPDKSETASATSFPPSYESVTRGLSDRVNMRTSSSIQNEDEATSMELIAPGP
Sequence of NaV1.6 (Q9UQD0 whole entry): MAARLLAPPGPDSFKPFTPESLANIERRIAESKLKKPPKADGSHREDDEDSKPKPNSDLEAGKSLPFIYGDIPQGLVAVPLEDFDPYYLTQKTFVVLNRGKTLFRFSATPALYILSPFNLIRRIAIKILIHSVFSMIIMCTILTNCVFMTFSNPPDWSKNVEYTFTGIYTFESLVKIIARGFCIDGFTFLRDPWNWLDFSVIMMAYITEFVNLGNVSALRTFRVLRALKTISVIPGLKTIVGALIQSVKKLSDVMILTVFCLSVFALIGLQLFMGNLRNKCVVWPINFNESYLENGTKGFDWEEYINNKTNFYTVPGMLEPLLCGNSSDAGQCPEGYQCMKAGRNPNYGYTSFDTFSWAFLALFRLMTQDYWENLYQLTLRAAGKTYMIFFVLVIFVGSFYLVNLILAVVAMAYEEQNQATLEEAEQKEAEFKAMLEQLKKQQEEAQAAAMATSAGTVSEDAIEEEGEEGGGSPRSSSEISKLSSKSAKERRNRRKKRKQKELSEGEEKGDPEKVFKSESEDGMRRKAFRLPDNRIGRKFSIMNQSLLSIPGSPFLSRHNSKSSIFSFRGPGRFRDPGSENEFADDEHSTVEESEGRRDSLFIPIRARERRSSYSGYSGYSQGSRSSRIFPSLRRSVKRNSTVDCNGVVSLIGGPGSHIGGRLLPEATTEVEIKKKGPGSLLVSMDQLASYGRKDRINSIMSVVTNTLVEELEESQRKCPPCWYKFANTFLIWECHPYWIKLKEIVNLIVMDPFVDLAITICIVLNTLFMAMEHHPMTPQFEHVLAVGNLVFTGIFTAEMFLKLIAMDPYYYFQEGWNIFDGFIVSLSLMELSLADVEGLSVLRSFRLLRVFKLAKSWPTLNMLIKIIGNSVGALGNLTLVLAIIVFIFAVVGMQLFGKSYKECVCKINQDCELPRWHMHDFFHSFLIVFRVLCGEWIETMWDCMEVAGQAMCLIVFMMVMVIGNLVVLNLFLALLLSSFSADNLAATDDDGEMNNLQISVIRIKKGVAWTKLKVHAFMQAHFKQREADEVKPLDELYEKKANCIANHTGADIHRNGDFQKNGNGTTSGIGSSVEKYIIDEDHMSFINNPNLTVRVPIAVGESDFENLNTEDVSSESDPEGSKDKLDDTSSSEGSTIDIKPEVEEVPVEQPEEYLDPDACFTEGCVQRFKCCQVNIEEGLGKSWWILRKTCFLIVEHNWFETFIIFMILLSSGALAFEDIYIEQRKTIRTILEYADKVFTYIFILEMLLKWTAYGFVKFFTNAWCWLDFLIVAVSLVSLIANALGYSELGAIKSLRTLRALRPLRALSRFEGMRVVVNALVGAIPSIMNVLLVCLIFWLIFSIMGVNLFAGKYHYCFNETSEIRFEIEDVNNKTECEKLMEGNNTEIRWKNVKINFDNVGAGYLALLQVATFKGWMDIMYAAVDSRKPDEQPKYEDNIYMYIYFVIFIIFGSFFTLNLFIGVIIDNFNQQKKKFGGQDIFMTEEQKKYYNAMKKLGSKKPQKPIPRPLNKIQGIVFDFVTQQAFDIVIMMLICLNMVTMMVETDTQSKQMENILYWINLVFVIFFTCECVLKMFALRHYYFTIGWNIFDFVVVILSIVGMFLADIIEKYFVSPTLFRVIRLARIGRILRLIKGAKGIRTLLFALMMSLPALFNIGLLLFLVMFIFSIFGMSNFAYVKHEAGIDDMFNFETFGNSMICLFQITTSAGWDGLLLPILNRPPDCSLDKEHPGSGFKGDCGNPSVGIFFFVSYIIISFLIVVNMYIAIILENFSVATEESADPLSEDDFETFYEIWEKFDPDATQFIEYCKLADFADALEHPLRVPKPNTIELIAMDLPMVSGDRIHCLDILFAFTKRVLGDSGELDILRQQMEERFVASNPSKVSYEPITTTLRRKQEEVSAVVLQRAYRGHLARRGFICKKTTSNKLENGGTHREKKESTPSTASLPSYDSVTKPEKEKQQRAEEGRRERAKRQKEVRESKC
Sequence of hERG ion channels (Q12809 whole entry): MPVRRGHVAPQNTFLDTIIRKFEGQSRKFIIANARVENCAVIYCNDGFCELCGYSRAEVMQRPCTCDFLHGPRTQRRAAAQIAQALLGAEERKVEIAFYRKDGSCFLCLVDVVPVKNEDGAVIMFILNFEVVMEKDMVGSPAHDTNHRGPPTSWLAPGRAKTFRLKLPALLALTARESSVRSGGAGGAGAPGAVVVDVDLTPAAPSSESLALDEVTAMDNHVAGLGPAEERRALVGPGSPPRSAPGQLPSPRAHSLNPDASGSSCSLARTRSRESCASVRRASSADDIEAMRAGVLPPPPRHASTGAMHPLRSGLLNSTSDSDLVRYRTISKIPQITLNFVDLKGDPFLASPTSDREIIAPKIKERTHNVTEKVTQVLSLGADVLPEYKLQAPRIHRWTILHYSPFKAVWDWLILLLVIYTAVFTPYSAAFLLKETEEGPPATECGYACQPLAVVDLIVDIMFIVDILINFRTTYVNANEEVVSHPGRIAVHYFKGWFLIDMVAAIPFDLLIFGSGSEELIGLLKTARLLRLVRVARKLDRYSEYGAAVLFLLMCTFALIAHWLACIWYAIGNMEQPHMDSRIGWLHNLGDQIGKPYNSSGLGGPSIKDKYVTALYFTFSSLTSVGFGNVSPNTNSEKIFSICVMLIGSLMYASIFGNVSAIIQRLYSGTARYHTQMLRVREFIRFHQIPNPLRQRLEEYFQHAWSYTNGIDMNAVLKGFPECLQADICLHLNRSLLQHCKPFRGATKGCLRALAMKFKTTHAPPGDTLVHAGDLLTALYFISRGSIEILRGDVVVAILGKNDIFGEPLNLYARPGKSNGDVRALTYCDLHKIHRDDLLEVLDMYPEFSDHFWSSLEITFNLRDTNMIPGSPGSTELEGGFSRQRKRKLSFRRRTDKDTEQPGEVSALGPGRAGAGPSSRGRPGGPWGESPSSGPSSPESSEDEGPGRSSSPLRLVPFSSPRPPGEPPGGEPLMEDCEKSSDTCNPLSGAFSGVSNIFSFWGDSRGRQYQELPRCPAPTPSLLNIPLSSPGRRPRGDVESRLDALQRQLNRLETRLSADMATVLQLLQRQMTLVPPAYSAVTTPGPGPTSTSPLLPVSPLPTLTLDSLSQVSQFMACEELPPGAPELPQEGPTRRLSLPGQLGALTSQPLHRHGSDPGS

As for `Cc1cc(F)ccc1Oc1cc(C2CC2)c(C(F)(F)F)cc1C(=O)Nc1ccc(F)c(OC[C@H](O)CNC(=O)CO)c1` [Example 119], the “Inhibition ratio on Nav1.1” value in data set [1] is on record as <1%. In addition, in [2], the half-life (in general, the time needed for the level to fall by half in the phase considered) was 1.9 h; the AUC (as a rule, the area under the concentration-time curve, a measure of exposure) is 44500 ng·h/mL; the peak concentration (Cmax) (commonly the highest concentration seen after dosing) was found to be 5190 ng/mL. The “Inhibition ratio on Nav1.5” value in data set [3] is on record as 2.8%. The “Inhibition ratio on Nav1.7” value in data set [4] is listed as <1%. The inhibition at 0.1 µM in data set [5] was > 80%. Besides, the “Inhibition ratio on Nav1.6” value in [6] stood at 5.1%. For the same compound, in [7], the “Inhibition ratio on Nav1.4” value stood at 1.4%. For the same compound, half-maximal inhibition in data set [8] (IC50) required 4.2 µM. Moreover, in [9], the “Inhibition ratio on Nav1.3” value was <1%.

In the case of `Cc1cc(F)ccc1Oc1cc(C(F)(F)F)c(Cl)cc1C(=O)Nc1cnnc(OC[C@H](O)CO)c1` [Example 116], the “Inhibition ratio on Nav1.1” value in [1] turned out to be 1.2%. Besides, in [2], the half-life is 8.7 h, the AUC amounted to 42500 ng·h/mL and the Cmax came out at 2570 ng/mL. The “Inhibition ratio on Nav1.5” value in data set [3] is given as <1%. For the same compound, the “Inhibition ratio on Nav1.7” value in data set [4] is listed as <1%. Besides, the inhibition at 0.1 µM in [5] was 50 to 80%. Moreover, in data set [6], the “Inhibition ratio on Nav1.6” value was determined as 2.6%. Further, the “Inhibition ratio on Nav1.4” value in data set [7] is given as <1%. The half-inhibitory concentration (IC50) (commonly the concentration that inhibits the measured activity by half) in [8] was determined as 15.6 µM. Also, in [9], the “Inhibition ratio on Nav1.3” value is listed as 3.7%.

The record behind these values is patent US20230303497A1, “BENZYLAMINE OR BENZYL ALCOHOL DERIVATIVE AND USES THEREOF” (CHENGDU HYPERWAY PHARMACEUTICALS CO., LTD, priority 2020, published 2023).
